Patent US20090143456A1, “Polyamine Analogs as Modulators of Cell Migration and Cell Motility” (priority 2005, published 2009)

Test system: Human glioblastoma SNB19 cells
Test: LIVE/DEAD reagent staining to assess compound toxicity at end of migration assay
Type: cell-based
Protocol: The 96 well slides were first coated with 0.1 μg/ml laminin, a motility stimulating substrate, in PBS for 1 hour at 37° C., rinsed three times in PBS, and then treated with 0.1% BSA in PBS for 1 hour at room temperature. Human glioblastoma SNB19 cells were plated at 3,000 cells per sedimentation channel and incubated overnight to allow cell sedimentation and attachment to the substrate. After removal of the manifold, the cells were treated with the compounds either at 0, 0.1 μM, 1 μM or […]. The experiment was done in duplicate with appropriate controls on each slide. After adding the compounds, the diameter of each cell population was initially measured using an inverted microscope and image analysis software (Scion Image Corp, Frederick, Md.). Cells were incubated an additional 72 hours in the presence (or not) of the pharmacological compounds. The diameter of each cell population was again assessed at 24 hours, 48 hours and 72 hours to calculate the overall migration rate. Migration results were reported as the specific radial movement (μm/day) of the cell population. […] At the end of the assay, cells were rinsed with PBS, then treated with LIVE/DEAD reagent staining (Molecular Probes, Eugene, Oreg.) to assess compound toxicity.
FIGS. 1-38 show data for the activity of compounds in the migration assay. […]

c1ccc(C2(NCCCCNCC3CC3CNCCCCNC3(c4ccccc4)CC3)CC2)cc1 (centres unmarked) [SL-11255, 1,2-bis((1-phenylcyclopropylaminobutyl)aminomethyl)cyclopropane]
cytotoxic effects (Live/Dead assay) (10 μM, at time of staining (end of 72 hour assay)): severe cytotoxic effects | toxicity (Live/Dead assay) (lower concentrations (below 10 μM)): not toxic
